# Assay results from ChEMBL document CHEMBL3885881, “DrugMatrix”.
# Species: Rattus norvegicus
# Assay: DrugMatrix - Regimen: Daily Repeat
# Format: toxicity, organism-based, Sprague-Dawley
# Design: regimen Daily Repeat, gender Male, age 6-8 weeks
# Settings: in vivo, po, route oral GAVAGE, […]; for ABSOLUTE BASOPHIL / ABSOLUTE EOSINOPHIL / ABSOLUTE LYMPHOCYTE / ABSOLUTE MONOCYTE / ABSOLUTE SEGMENTED NEUTROPHIL / BASOPHIL / EOSINOPHIL / ERYTHROCYTE COUNT / HEMATOCRIT / HEMOGLOBIN / LEUKOCYTE COUNT / LYMPHOCYTE / MEAN CORPUSCULAR HEMOGLOBIN / MEAN CORPUSCULAR HEMOGLOBIN CONCENTRATION / MEAN CORPUSCULAR VOLUME / MONOCYTE / NEUTROPHIL / NUCLEATED RED BLOOD CELLS / PLATELET COUNT: tissue Blood; for ALANINE AMINOTRANSFERASE / ALBUMIN / ALKALINE PHOSPHATASE / ASPARTATE AMINOTRANSFERASE / BLOOD UREA NITROGEN / CARBON DIOXIDE / CHLORIDE / CHOLESTEROL / CREATINE PHOSPHOKINASE / CREATININE / GLUCOSE / LACTATE DEHYDROGENASE / LIPASE / PHOSPHORUS / POTASSIUM / SODIUM / TOTAL BILIRUBIN / TOTAL PROTEIN / URIC ACID: tissue Plasma
# [1] = 0 mg/kg, 72 h, dose level Control, time 3 day
# [2] = 0 mg/kg, 120 h, dose level Control, time 5 day
# [3] = 3 mg/kg, 72 h, dose level Low, time 3 day
compound,measurement,setting,value
CS(=O)(=O)c1ccc(C2=C(c3ccccc3)C(=O)OC2)cc1 [ROFECOXIB],ABSOLUTE BASOPHIL,[1],0 CELLS/uL
same,ABSOLUTE EOSINOPHIL,[1],0 CELLS/uL
same,ABSOLUTE LYMPHOCYTE,[1],6275.67 CELLS/uL
same,ABSOLUTE MONOCYTE,[1],40.67 CELLS/uL
same,ABSOLUTE SEGMENTED NEUTROPHIL,[1],633.67 CELLS/uL
same,BASOPHIL,[1],0%
same,EOSINOPHIL,[1],0%
same,ERYTHROCYTE COUNT,[1],5.2 x10E6/uL
same,HEMATOCRIT,[1],32.78%
same,HEMOGLOBIN,[1],12.98 G/DL
same,LEUKOCYTE COUNT,[1],6.95 x10E3/uL
same,LYMPHOCYTE,[1],90.17%
same,MEAN CORPUSCULAR HEMOGLOBIN,[1],24.97 pg
same,MEAN CORPUSCULAR HEMOGLOBIN CONCENTRATION,[1],39.62 G/DL
same,MEAN CORPUSCULAR VOLUME,[1],63.03 fL
same,MONOCYTE,[1],0.67%
same,NEUTROPHIL,[1],9.17%
same,NUCLEATED RED BLOOD CELLS,[1],0 /100WBC
same,PLATELET COUNT,[1],1082.83 x10E3/uL
same,ALANINE AMINOTRANSFERASE,[1],69.67 u/L
same,ALBUMIN,[1],4.15 G/DL
same,ALKALINE PHOSPHATASE,[1],430.5 u/L
same,ASPARTATE AMINOTRANSFERASE,[1],90.83 u/L
same,BLOOD UREA NITROGEN,[1],13 mg/dL
same,CARBON DIOXIDE,[1],33 mmol/L
same,CHLORIDE,[1],99.17 MEQ/L
same,CHOLESTEROL,[1],70.5 mg/dL
same,CREATINE PHOSPHOKINASE,[1],253.33 u/L
same,CREATININE,[1],0.13 mg/dL
same,GLUCOSE,[1],157.17 mg/dL
same,LACTATE DEHYDROGENASE,[1],85 u/L
same,LIPASE,[1],10 u/L
same,PHOSPHORUS,[1],10.2 mg/dL
same,POTASSIUM,[1],5.78 MEQ/L
same,SODIUM,[1],144.12 MEQ/L
same,TOTAL BILIRUBIN,[1],0.2 mg/dL
same,TOTAL PROTEIN,[1],5.8 G/DL
same,URIC ACID,[1],0.8 mg/dL
same,ABSOLUTE BASOPHIL,[2],0 CELLS/uL
same,ABSOLUTE EOSINOPHIL,[2],0 CELLS/uL
same,ABSOLUTE LYMPHOCYTE,[2],10431 CELLS/uL
same,ABSOLUTE MONOCYTE,[2],90.5 CELLS/uL
same,ABSOLUTE SEGMENTED NEUTROPHIL,[2],1111.83 CELLS/uL
same,BASOPHIL,[2],0%
same,EOSINOPHIL,[2],0%
same,ERYTHROCYTE COUNT,[2],5.51 x10E6/uL
same,HEMATOCRIT,[2],34.67%
same,HEMOGLOBIN,[2],13.5 G/DL
same,LEUKOCYTE COUNT,[2],11.63 x10E3/uL
same,LYMPHOCYTE,[2],89.67%
same,MEAN CORPUSCULAR HEMOGLOBIN,[2],24.5 pg
same,MEAN CORPUSCULAR HEMOGLOBIN CONCENTRATION,[2],38.95 G/DL
same,MEAN CORPUSCULAR VOLUME,[2],62.87 fL
same,MONOCYTE,[2],0.67%
same,NEUTROPHIL,[2],9.67%
same,NUCLEATED RED BLOOD CELLS,[2],0 /100WBC
same,PLATELET COUNT,[2],1052.67 x10E3/uL
same,ALANINE AMINOTRANSFERASE,[2],54.67 u/L
same,ALBUMIN,[2],4.15 G/DL
same,ALKALINE PHOSPHATASE,[2],359.83 u/L
same,ASPARTATE AMINOTRANSFERASE,[2],83 u/L
same,BLOOD UREA NITROGEN,[2],13.5 mg/dL
same,CARBON DIOXIDE,[2],27.17 mmol/L
same,CHLORIDE,[2],98.5 MEQ/L
same,CHOLESTEROL,[2],66.83 mg/dL
same,CREATINE PHOSPHOKINASE,[2],256.17 u/L
same,CREATININE,[2],0.19 mg/dL
same,GLUCOSE,[2],171.33 mg/dL
same,LACTATE DEHYDROGENASE,[2],91.5 u/L
same,LIPASE,[2],10.5 u/L
same,PHOSPHORUS,[2],8.72 mg/dL
same,POTASSIUM,[2],5.34 MEQ/L
same,SODIUM,[2],142.53 MEQ/L
same,TOTAL BILIRUBIN,[2],0.2 mg/dL
same,TOTAL PROTEIN,[2],6.05 G/DL
same,URIC ACID,[2],0.6 mg/dL
same,ABSOLUTE BASOPHIL,[3],0 CELLS/uL
same,ABSOLUTE EOSINOPHIL,[3],85.33 CELLS/uL
same,ABSOLUTE LYMPHOCYTE,[3],8896 CELLS/uL
same,ABSOLUTE MONOCYTE,[3],157.33 CELLS/uL
same,ABSOLUTE SEGMENTED NEUTROPHIL,[3],594.67 CELLS/uL
same,BASOPHIL,[3],0%
same,EOSINOPHIL,[3],0.67%
same,ERYTHROCYTE COUNT,[3],4.87 x10E6/uL
same,HEMATOCRIT,[3],31.33%
same,HEMOGLOBIN,[3],12.37 G/DL
same,LEUKOCYTE COUNT,[3],9.73 x10E3/uL
same,LYMPHOCYTE,[3],92%
same,MEAN CORPUSCULAR HEMOGLOBIN,[3],25.37 pg
same,MEAN CORPUSCULAR HEMOGLOBIN CONCENTRATION,[3],39.47 G/DL
same,MEAN CORPUSCULAR VOLUME,[3],64.27 fL
same,MONOCYTE,[3],1.33%
same,NEUTROPHIL,[3],6%
same,NUCLEATED RED BLOOD CELLS,[3],0 /100WBC
same,PLATELET COUNT,[3],1073 x10E3/uL
same,ALANINE AMINOTRANSFERASE,[3],72.67 u/L
same,ALBUMIN,[3],3.97 G/DL
same,ALKALINE PHOSPHATASE,[3],379.67 u/L
same,ASPARTATE AMINOTRANSFERASE,[3],91.33 u/L
same,BLOOD UREA NITROGEN,[3],11.33 mg/dL
same,CARBON DIOXIDE,[3],30.33 mmol/L
same,CHLORIDE,[3],103.33 MEQ/L
same,CHOLESTEROL,[3],80.33 mg/dL
same,CREATINE PHOSPHOKINASE,[3],195.67 u/L
same,CREATININE,[3],0.12 mg/dL
same,GLUCOSE,[3],156 mg/dL
same,LACTATE DEHYDROGENASE,[3],80 u/L
same,LIPASE,[3],9.67 u/L
same,PHOSPHORUS,[3],11.1 mg/dL
same,POTASSIUM,[3],6.21 MEQ/L
same,SODIUM,[3],149.03 MEQ/L
same,TOTAL BILIRUBIN,[3],0.1 mg/dL
same,TOTAL PROTEIN,[3],5.43 G/DL
same,URIC ACID,[3],0.7 mg/dL
